Tested on: back of a marmot
Test: Continuous skin irritation test of retinol
Type: in vivo
Settings: polar oil blend ratio 8 mass %, 0.2 mass % retinol
Method: “Continuous Skin Irritation Test”
0.05 ml of a sample solution containing a lipophilic drug was applied on a 2×2 cm area of the back of a marmot (first application).
24 hours later, the second application was done.
Again, 24 hours later, the third application was done.
Before the second application, before the third application, and 24 hours after the third application, skin reactions such as erythema and edema was observed by naked eye. Evaluation was conducted based on the following criteria, and the average of the three scores was used as the skin reaction score.
Evaluation Criteria of the Skin Reaction

## CCCCCCCC(=O)OCC(COC(=O)CCCCCCC)(COC(=O)CCCCCCC)COC(=O)CCCCCCC [pentaerythrityl tetraoctanoate]
  skin irritation suppression effect (retinol), FIG. 9: superior skin irritation suppression effect
